Experimental data: the supplement of paper PMC11451515

Test system: P12-Ichikawa
Test: cell viability relative to DMSO control; higher = less cytotoxic
Conditions: 48 h
Method in brief: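 Three leukemia lines were tested: NOMO1 and SEM at 500 cells/well and P12-Ichikawa at 1000 cells/well. Each was adapted for at least four passages in each medium and seeded in 5 μl in 1536-well plates, and library compounds in DMSO were pin-dosed from 47 μM to 0.79 nM in 11 threefold steps. After 48 h at 37°C, CellTiter-Glo One luminescence was read. Viability is a percentage relative to DMSO wells on each plate, with cell-free wells as background.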

[1] = HPLM + 10% dialyzed FBS, 0.000781 µM
[2] = HPLM + 10% dialyzed FBS, 0.00234 µM
[3] = HPLM + 10% dialyzed FBS, 0.00702 µM
[4] = HPLM + 10% dialyzed FBS, 0.0211 µM
[5] = HPLM + 10% dialyzed FBS, 0.0632 µM
[6] = HPLM + 10% dialyzed FBS, 0.19 µM
[7] = HPLM + 10% dialyzed FBS, 0.569 µM
[8] = HPLM + 10% dialyzed FBS, 1.71 µM
[9] = HPLM + 10% dialyzed FBS, 5.12 µM
[10] = HPLM + 10% dialyzed FBS, 15.4 µM
[11] = HPLM + 10% dialyzed FBS, 46.1 µM
[12] = RPMI 5 mM glucose + 10% FBS, 0.000781 µM
[13] = RPMI 5 mM glucose + 10% FBS, 0.00234 µM
[14] = RPMI 5 mM glucose + 10% FBS, 0.00702 µM
[15] = RPMI 5 mM glucose + 10% FBS, 0.0211 µM
[16] = RPMI 5 mM glucose + 10% FBS, 0.0632 µM
[17] = RPMI 5 mM glucose + 10% FBS, 0.19 µM
[18] = RPMI 5 mM glucose + 10% FBS, 0.569 µM
[19] = RPMI 5 mM glucose + 10% FBS, 1.71 µM
[20] = RPMI 5 mM glucose + 10% FBS, 5.12 µM
[21] = RPMI 5 mM glucose + 10% FBS, 15.4 µM
[22] = RPMI 5 mM glucose + 10% FBS, 46.1 µM
[23] = RPMI 5 mM glucose + 10% dialyzed FBS, 0.000781 µM
[24] = RPMI 5 mM glucose + 10% dialyzed FBS, 0.00234 µM
[25] = RPMI 5 mM glucose + 10% dialyzed FBS, 0.00702 µM
[26] = RPMI 5 mM glucose + 10% dialyzed FBS, 0.0211 µM
[27] = RPMI 5 mM glucose + 10% dialyzed FBS, 0.0632 µM
[28] = RPMI 5 mM glucose + 10% dialyzed FBS, 0.19 µM
[29] = RPMI 5 mM glucose + 10% dialyzed FBS, 0.569 µM
[30] = RPMI 5 mM glucose + 10% dialyzed FBS, 1.71 µM
[31] = RPMI 5 mM glucose + 10% dialyzed FBS, 5.12 µM
[32] = RPMI 5 mM glucose + 10% dialyzed FBS, 15.4 µM
[33] = RPMI 5 mM glucose + 10% dialyzed FBS, 46.1 µM

Structure (SMILES)	cell viability [1] [%]	cell viability [2] [%]	cell viability [3] [%]	cell viability [4] [%]	cell viability [5] [%]	cell viability [6] [%]	cell viability [7] [%]	cell viability [8] [%]	cell viability [9] [%]	cell viability [10] [%]	cell viability [11] [%]	cell viability [12] [%]	cell viability [13] [%]	cell viability [14] [%]	cell viability [15] [%]	cell viability [16] [%]	cell viability [17] [%]	cell viability [18] [%]	cell viability [19] [%]	cell viability [20] [%]	cell viability [21] [%]	cell viability [22] [%]	cell viability [23] [%]	cell viability [24] [%]	cell viability [25] [%]	cell viability [26] [%]	cell viability [27] [%]	cell viability [28] [%]	cell viability [29] [%]	cell viability [30] [%]	cell viability [31] [%]	cell viability [32] [%]	cell viability [33] [%]
OC[C@H]1O[C@@H](Oc2cc(O)cc(/C=C/c3ccc(O)cc3)c2)[C@H](O)[C@@H](O)[C@@H]1O	98.2	110	108	113	113	107	108	131	110	117	117	110	114	106	113	116	125	117	123	105	103	101	89.9	109	105	105	114	107	115	112	103	102	101
CN1CCN(C(=O)O[C@H]2c3nccnc3C(=O)N2c2ccc(Cl)cn2)CC1	112	108	105	111	104	110	103	108	101	98.2	99.9	96.8	102	106	106	101	106	103	95.5	93	95.1	88	98.6	102	98.9	105	92.9	102	101	99.1	102	93.6	85.1
OCCn1cc(-c2cnc3nnn(Cc4ccc5ncccc5c4)c3n2)cn1	116	116	116	110	112	110	110	107	103	98.9	75.4	108	115	114	107	106	122	115	101	100	99.6	86.5	108	122	114	118	122	115	115	109	112	96.9	88.6
COc1cc(C)c(Sc2cnc(NC(=O)c3ccc(CNC(C)C(C)C)cc3)s2)cc1C(=O)N1CCN(C(C)=O)CC1 (stereo not given)	118	125	119	129	119	118	117	107	103	90.1	109																						
